The values below come from US20200003760A1, “IN-VITRO METHODS FOR CLASSIFYING DRUGS ACCORDING TO THEIR POTENTIAL TO CAUSE LIVER CELL INJURY” (Board of Trustees of Michigan State University, priority 2018, published 2020).

Entries after “also recorded” stand apart in the source; their conditions may differ. Where two headings read alike, the source gives them in different places.

The subject of data set [1] is HepG2 cells. Put plainly: Drug/cytokine-induced cytotoxicity (% LDH release) concentration-response in HepG2 cells. It counts as cell-based, human. To be noted: for R10 / R10 IFN / R10 TNF / R10 TNF/IFN: 10 percent increase in LDH response above min, 0 when D10 = 0; for R10 / Emax: drug alone (VEH); for R10 IFN: with IFN; for R10 TNF: with TNF; for R10 TNF/IFN / EC10 TNF/IFN: with TNF and IFN; for Deltadiff: Delta of drug/TNF curve minus Delta of drug/VEH curve (LDH percentage); for Emax: Homo sapiens, HepG2; for TNF change: D10TNF − D10VEH; for cytotoxic interaction of drug with TNF: TNF 10 ng/ml; for synergy with cytokines to kill HepG2 cells: TNF and/or IFN; for cytotoxicity of drug on its own (LDH release): absence of cytokines. Also on record: key to Deltadiff: LDH release percentage points (drug/TNF Delta minus drug/VEH Delta). The procedure, abridged: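 Cells at passage 6-16 were treated for 24 hours with drug or vehicle (water or DMSO <0.5%), alone or with TNF (10 ng/ml) and/or IFN (10 ng/ml), after overnight attachment. Cytotoxicity was scored as LDH released into medium; concentrations were expressed as [drug]/Cmax, with four-parameter logistic fits giving EC50, EC10 and R10 (+10 LDH points over baseline).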

A short description of data set [2]: Logistic regression classification model: probability that a drug is associated with IDILI. Particulars: for Estimated probability: probability that drug is associated with IDILI, covariates Deltadiff, EC50 VEH, EC50 TNF, Delta VEH, Cmax, optimal cutoff 0.46; for classification by the best-performing model: optimal cutoff. Further details: species or system human. From the text:
Classification modeling using defined covariates. In the second phase of analysis, classification models were developed using logistic regression with covariates as independent variables in the analysis and known IDILI classification as the dependent variable. A model selection process was used to determine if a covariate or set of covariates is associated with IDILI liability. Covariates were first evaluated individually to determine how well a particular covariate classified drugs according to IDILI liability, and then covariates were evaluated in combination. Combinations of covariates were selected to maximize the ability of the model to distinguish between drugs associated or not with IDILI. Specifically, covariates that describe changes in efficacy (Delta, Deltadiff, etc.) were paired with covariates that describe changes in potency (EC50, EC10, R10, etc.) to find covariate combinations that led to models that most accurately discriminated between drugs that are and are not associated with IDILI. […] The logistic regression models follow the equation: […]
where ŷi is the calculated (predicted) probability that drug i with a vector of covariates xi is associated with IDILI. The β coefficients (β0, the regression intercept; and βi, the regression slopes for model covariates, xi) were derived from the logistic regression models using 1) combinations of the covariates (xi) generated by concentration-response modeling for each of the 24 drugs evaluated in this study, and 2) the true IDILI classification for the dependent variable yi (i.e., 1 for IDILI+drugs and 0 for IDILI-drugs). […] This occurs when a covariate almost perfectly separates observations into the appropriate categories. […] When separation or quasi-complete separation occurs, use of the standard method (i.e., maximum likelihood estimation) provides biased, unreliable estimates of βi.
Receiver operating characteristic (ROC) analysis. In the third phase of the statistical approach, the classification models, generated as logistic regression models using single covariates or combinations of covariates, were evaluated by ROC analysis to determine which model and corresponding sets of covariates led to the most accurate classification of drugs according to their potential to cause IDILI. An ROC curve was created for each model by graphing the true positive rate (sensitivity; i.e., proportion of drugs correctly classified as associated with IDILI) against the false positive rate (1-specificity; i.e., proportion of drugs incorrectly classified as associated with IDILI) at various probability cutoff thresholds (k). […] An area under the curve (AUC) and confidence interval was computed for each ROC curve (where each logistic regression model has one ROC curve). […] Corresponding to each ROC curve is an optimal threshold value (k*), the threshold yielding the highest point of accuracy on the curve (i.e., the point nearest the point […] on the curve). Thus, each ROC curve has a corresponding AUC and an optimal cutoff (k*) that corresponds to the highest point of accuracy on that ROC curve.

For data set [3] the following is noted: maximal plasma concentration after pharmacologic dosing in human patients; cited from earlier work.
For data set [4] the following is noted: cited from earlier work; for True classification: IDILI in human patients; for IDILI liability: criteria of Xu et al. (2008); for pattern of liver injury in humans: human patients.
Data set [5] relates to HepG2 cells. Put plainly: Point of departure (POD) from censored concentration-response relationships in HepG2 cells. Format: cell-based, human. To be noted: censored CRRs, 4-parameter log-logistic model. From the text: Partial, or censored, CRRs were then created using concentrations at or below the EC50. Nine CRC models were fit to the partial CRRs for all 24 drugs and compared to identify the best-fitting CRC model overall. Models were compared using Akaike Information Criteria (AIC; Akaike 1973, Burnham & Anderson 2002). The 4-parameter log-logistic model was selected to model censored CRRs for each of the 24 drugs since it provided the best fit (lowest AIC) for the majority of drugs. […] PODs provided a robust measure to characterize each of the CRCs using the low-concentration regions of the CRRs. In addition to POD.DRUG and POD.DRUG+TNF, POD.DIFF (i.e., POD.DRUG−POD.DRUG+TNF) and POD.RATIO (i.e., POD.DRUG/POD.DRUG+TNF) were used as covariates in the logistic regression model developed to classify the drugs according to their IDILI status. […] The horizontal blue line illustrates the mean control value estimated by pooling LDH % responses at the zero concentrations for both CRRs above. The horizontal dashed red line illustrates an upper limit of the pooled control data as the control mean plus 2 control standard deviations. PODs were then calculated for each curve as the effective concentration corresponding to the upper limit of the pooled control data, shown as vertical dashed red lines.

[6] abbreviates: categorical, Delta threshold 10 LDH percentage points, read-out: D10.
Setting [7] is: maximal LDH response, 24 h, read-out: max.
The mark [8] stands for this setting: value corresponding to 10% of Delta, NA = no significant increase.

Consider `CN[C@H]1CC[C@@H](c2ccc(Cl)c(Cl)c2)c2ccccc21` [Sertraline], for which, in the data set with HepG2 cells [1], the R10 was 0 [drug]/Cmax, the “R10 IFN” value was 0 [drug]/Cmax, the “R10 TNF” value was 0 [drug]/Cmax and the “R10 TNF/IFN” value is 0 [drug]/Cmax. Besides, the Deltadiff in the data set with HepG2 cells [1] is recorded as 0. For the same molecule, in the data set on HepG2 cells [1] (setting [6]), the Emax was less than 10%. Besides, the Emax in the data set with HepG2 cells [1] (setting [7]) was 14%. The TNF change in the data set on HepG2 cells [1] (categorical) amounted to 0. For the same molecule, the Estimated probability in data set [2] was 0.1275. The Cmax in data set [3] was 60 nM. In addition, in data set [4], the True classification entry is given as “IDILI−” and the IDILI liability entry is “IDILI−”.

Take `Cc1onc(-c2c(F)cccc2Cl)c1C(=O)N[C@@H]1C(=O)N2[C@@H]1SC(C)(C)[C@@H]2C(=O)O` [Flucloxacillin]: in the data set on HepG2 cells [1], the R10 was 0 [drug]/Cmax, the “R10 IFN” value is 0 [drug]/Cmax, the “R10 TNF” value is 0 [drug]/Cmax and the “R10 TNF/IFN” value was 0 [drug]/Cmax. The Deltadiff with HepG2 cells [1] is 0. Moreover, in the data set on HepG2 cells [1] (HepG2, 24 h), the “cytotoxic interaction of drug with TNF” value is “no statistically significant increase in LDH”, the “synergy with cytokines to kill HepG2 cells” value is reported as “did not synergize with cytokines to kill HepG2 cells” and the “cytotoxicity of drug on its own (LDH release)” value (from here on “cytotoxicity of drug on its own”) is listed as “no statistically significant increase in LDH”. In addition, the Emax in the data set with HepG2 cells [1] (setting [6]) is less than 10%. In addition, the Emax in the data set on HepG2 cells [1] (setting [7]) turned out to be 17.9%. In addition, the TNF change in the data set on HepG2 cells [1] (categorical) worked out at 0. In addition, the “calculated probability for association with IDILI” value in data set [2] (best-performing classification model) is on record as 0.154. Besides, in data set [2], the “classification by the best-performing model” value is “incorrectly classified as not associated with IDILI” and the Estimated probability is 0.1545. Further, the peak concentration (Cmax) in data set [3] was 72600 nM. In data set [4], the True classification entry was “IDILI+”, the IDILI liability result was “IDILI+” and the “pattern of liver injury in humans” value is reported as “cholestatic rather than hepatocellular”.

Regarding `N[C@@H]1[C@H]2CN(c3nc4c(cc3F)c(=O)c(C(=O)O)cn4-c3ccc(F)cc3F)C[C@@H]12` [Trovafloxacin], in the data set on HepG2 cells [1], the R10 was 0 [drug]/Cmax, the “R10 IFN” value was 0 [drug]/Cmax, the “R10 TNF” value is 4.8 [drug]/Cmax and the “R10 TNF/IFN” value is 1.2 [drug]/Cmax. Also, in the data set with HepG2 cells [1], the Deltadiff is 27.4. Further, in the data set with HepG2 cells [1] (HepG2, 24 h), the “cytotoxic interaction of drug with TNF” value was “TNF significantly enhanced the cytotoxicity” and the “cytotoxicity of drug on its own” value is “statistically significant increase in LDH release”. The “effect of IFN coexposure on the drug/TNF cytotoxic interaction” value with HepG2 cells [1] (HepG2, 24 h, TNF and IFN 10 ng/ml each) was “coexposure to IFN enhanced the cytotoxic interaction”. The Emax in the data set with HepG2 cells [1] (setting [6]) was less than 10%. In the data set with HepG2 cells [1] (setting [7]), the Emax came to 18.7%. In the data set on HepG2 cells [1] (categorical), the TNF change amounted to 1. Besides, the “EC10 TNF” value with HepG2 cells [1] (value corresponding to 10% of Delta, with TNF 10 ng/ml, NA = no significant increase) was 2.3 [drug]/Cmax. Besides, the “EC10 TNF/IFN” value with HepG2 cells [1] (setting [8]) is 0.5 [drug]/Cmax. Besides, the Cmax in data set [3] was 5000 nM. Besides, the “POD.DRUG versus POD.DRUG+TNF” value in the data set with HepG2 cells [5] was “POD.DRUG occurs at a relatively higher concentration than POD.DRUG+TNF”.

Turning to `CC(CN1c2ccccc2Sc2ccccc21)N(C)C` (stereo not shown) [Promethazine], in the data set with HepG2 cells [1], the R10 was 0 [drug]/Cmax, the “R10 IFN” value is 0 [drug]/Cmax, the “R10 TNF” value is 0 [drug]/Cmax and the “R10 TNF/IFN” value was 0 [drug]/Cmax. In the data set with HepG2 cells [1], the Deltadiff was determined as 0. Moreover, the Emax in the data set on HepG2 cells [1] (setting [6]) is less than 10%. Also, the Emax with HepG2 cells [1] (setting [7]) worked out at 17%. The TNF change with HepG2 cells [1] (categorical) turned out to be 0. Moreover, the Estimated probability in data set [2] is listed as 0.1275. The Cmax in data set [3] was 60 nM. In addition, in data set [4], the True classification result is “IDILI−” and the IDILI liability result is “IDILI−”.

For `CC[C@H]1OC(=O)[C@H](C)[C@@H](O[C@H]2C[C@@](C)(OC)[C@@H](O)[C@H](C)O2)[C@H](C)[C@@H](O[C@@H]2O[C@H](C)C[C@H](N(C)C)[C@H]2O)[C@](C)(O)C[C@@H](C)CN(C)[C@H](C)[C@@H](O)[C@]1(C)O` [Azithromycin], in the data set with HepG2 cells [1], the R10 was 0 [drug]/Cmax, the “R10 IFN” value is 0 [drug]/Cmax, the “R10 TNF” value was 0 [drug]/Cmax and the “R10 TNF/IFN” value is 333.9 [drug]/Cmax. Besides, the Deltadiff in the data set with HepG2 cells [1] turned out to be 0. In addition, the “synergy with cytokines to kill HepG2 cells” value with HepG2 cells [1] (HepG2, 24 h) is “modestly cytotoxic in the presence of TNF/IFN”. The Emax in the data set with HepG2 cells [1] (setting [6]) is less than 10%. Further, in the data set with HepG2 cells [1] (setting [7]), the Emax worked out at 11.6%. Moreover, the TNF change in the data set on HepG2 cells [1] (categorical) is listed as 0. The “EC10 TNF/IFN” value with HepG2 cells [1] (setting [8]) was 59.2 [drug]/Cmax. The Estimated probability in data set [2] is given as 0.1276. In data set [3], the Cmax was 500 nM. In addition, in data set [4], the True classification entry is given as “IDILI−” and the IDILI liability entry is on record as “IDILI−”.

As to `O=C(O)[C@H]1/C(=C/CO)O[C@@H]2CC(=O)N21` [Clavulanate], in the data set with HepG2 cells [1], the R10 was 0 [drug]/Cmax, the “R10 IFN” value was 0 [drug]/Cmax, the “R10 TNF” value is 0 [drug]/Cmax and the “R10 TNF/IFN” value was 0 [drug]/Cmax. The Deltadiff in the data set on HepG2 cells [1] came to 3.1. Also, in the data set on HepG2 cells [1] (HepG2, 24 h), the “cytotoxic interaction of drug with TNF” value is listed as “interacted only weakly with TNF” and the “cytotoxicity of drug on its own” value is given as “caused no cytotoxicity on their own”. Further, the “cytotoxic interaction of drug with TNF” value with HepG2 cells [1] (HepG2, 24 h, listed as clavulanate) is “synergized with TNF to cause cytotoxicity; also recorded: small but statistically significant”. Besides, in the data set with HepG2 cells [1] (setting [6]), the Emax was less than 10%. In the data set on HepG2 cells [1] (setting [7]), the Emax stood at 17.4%. Further, the TNF change in the data set on HepG2 cells [1] (categorical) worked out at 0. In addition, in data set [2], the “classification by the best-performing model” value is recorded as “correctly as IDILI1” and the Estimated probability is reported as 0.9509. For the same molecule, in data set [3], the Cmax was 12000 nM. In data set [4], the True classification entry is reported as “IDILI+”, the IDILI liability result is on record as “IDILI+” and the “pattern of liver injury in humans” value is “cholestatic pattern of injury”.

In general, Cmax refers to the highest concentration seen after dosing.
